From ChEMBL document CHEMBL2062464, “Allosteric modulation of seven transmembrane spanning receptors: theory, practice, and opportunities for central nervous system drug discovery” (J Med Chem, 2012)

Legend:
[1] = target: T1, Muscarinic acetylcholine receptor M1 (Homo sapiens) (UniProt P11229); assay: Positive allosteric modulation activity at muscarinic M1 receptor relative to acetylcholine
T1 sequence (whole entry): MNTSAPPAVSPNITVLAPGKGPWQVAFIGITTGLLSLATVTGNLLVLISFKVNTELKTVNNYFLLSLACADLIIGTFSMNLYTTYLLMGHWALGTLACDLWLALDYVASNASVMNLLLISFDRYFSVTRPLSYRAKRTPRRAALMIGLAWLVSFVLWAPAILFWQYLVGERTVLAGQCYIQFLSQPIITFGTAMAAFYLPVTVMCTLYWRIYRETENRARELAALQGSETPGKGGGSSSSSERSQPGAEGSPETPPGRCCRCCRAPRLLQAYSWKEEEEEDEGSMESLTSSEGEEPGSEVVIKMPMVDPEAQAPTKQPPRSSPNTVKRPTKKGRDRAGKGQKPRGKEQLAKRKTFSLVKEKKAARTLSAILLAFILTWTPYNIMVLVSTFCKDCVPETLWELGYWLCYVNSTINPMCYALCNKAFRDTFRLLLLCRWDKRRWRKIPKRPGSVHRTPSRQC

[2] = target: Muscarinic acetylcholine receptor M3 (Homo sapiens) (UniProt P20309); assay: Positive allosteric modulation activity at muscarinic M3 receptor relative to acetylcholine
Chain of Muscarinic acetylcholine receptor M3 (Homo sapiens) (P20309 whole entry, looked up): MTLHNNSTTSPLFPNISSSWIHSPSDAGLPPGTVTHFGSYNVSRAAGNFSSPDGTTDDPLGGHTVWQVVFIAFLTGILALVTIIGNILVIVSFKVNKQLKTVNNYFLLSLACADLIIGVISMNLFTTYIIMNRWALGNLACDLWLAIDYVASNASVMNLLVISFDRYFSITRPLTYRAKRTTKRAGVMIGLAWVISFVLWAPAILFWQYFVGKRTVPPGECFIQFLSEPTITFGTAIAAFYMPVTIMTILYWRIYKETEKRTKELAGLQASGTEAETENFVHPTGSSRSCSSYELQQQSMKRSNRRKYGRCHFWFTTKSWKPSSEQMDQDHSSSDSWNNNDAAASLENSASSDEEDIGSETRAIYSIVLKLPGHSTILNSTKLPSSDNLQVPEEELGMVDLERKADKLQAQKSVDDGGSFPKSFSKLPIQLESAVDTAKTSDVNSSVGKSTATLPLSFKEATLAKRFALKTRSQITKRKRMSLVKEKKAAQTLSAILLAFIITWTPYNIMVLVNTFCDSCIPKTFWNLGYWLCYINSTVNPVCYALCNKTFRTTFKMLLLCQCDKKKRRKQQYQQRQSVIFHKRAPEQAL

[3] = target: T2, Muscarinic acetylcholine receptor M5 (Homo sapiens) (UniProt P08912); assay: Positive allosteric modulation activity at muscarinic M5 receptor relative to acetylcholine
T2 sequence (whole entry): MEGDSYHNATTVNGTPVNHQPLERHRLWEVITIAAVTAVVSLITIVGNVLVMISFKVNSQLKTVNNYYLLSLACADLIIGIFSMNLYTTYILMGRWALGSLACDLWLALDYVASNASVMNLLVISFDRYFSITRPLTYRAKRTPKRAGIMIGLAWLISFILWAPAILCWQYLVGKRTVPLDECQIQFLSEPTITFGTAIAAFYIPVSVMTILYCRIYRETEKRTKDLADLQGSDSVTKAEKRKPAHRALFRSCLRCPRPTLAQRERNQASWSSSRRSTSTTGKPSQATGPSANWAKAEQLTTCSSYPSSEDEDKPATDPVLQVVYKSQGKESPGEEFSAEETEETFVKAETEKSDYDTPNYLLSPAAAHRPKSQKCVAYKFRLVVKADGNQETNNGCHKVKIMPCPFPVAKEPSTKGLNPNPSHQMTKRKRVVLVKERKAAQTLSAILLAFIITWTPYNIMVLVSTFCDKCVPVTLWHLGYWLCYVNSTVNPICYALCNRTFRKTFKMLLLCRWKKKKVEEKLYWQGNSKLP

[4] = target: T3, Adenosine receptor A1 (Homo sapiens) (UniProt P30542); assay: Allosteric modulation at adenosine A1 receptor assessed as receptor mediated ERK1/2 phosphorylation
T3 sequence (whole entry): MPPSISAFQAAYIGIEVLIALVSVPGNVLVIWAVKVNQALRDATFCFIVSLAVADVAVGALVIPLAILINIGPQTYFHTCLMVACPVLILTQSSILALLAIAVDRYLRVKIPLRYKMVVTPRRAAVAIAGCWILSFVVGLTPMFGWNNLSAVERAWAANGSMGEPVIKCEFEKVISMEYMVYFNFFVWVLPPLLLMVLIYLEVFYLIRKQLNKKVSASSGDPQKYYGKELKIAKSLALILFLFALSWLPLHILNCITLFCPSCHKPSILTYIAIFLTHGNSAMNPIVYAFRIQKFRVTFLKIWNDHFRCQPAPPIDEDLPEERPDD

[5] = target: T4, Muscarinic acetylcholine receptor M1 (Homo sapiens, UniProt P11229); assay: Positive allosteric modulation activity at muscarinic M1 receptor
T4 sequence (P11229 whole entry): T1 sequence (whole entry)

[6] = target: T5, Metabotropic glutamate receptor 5 (Homo sapiens, UniProt P41594); assay: Negative allosteric modulation activity at mGlu5 receptor
Target sequence in this assay (P41594 whole entry): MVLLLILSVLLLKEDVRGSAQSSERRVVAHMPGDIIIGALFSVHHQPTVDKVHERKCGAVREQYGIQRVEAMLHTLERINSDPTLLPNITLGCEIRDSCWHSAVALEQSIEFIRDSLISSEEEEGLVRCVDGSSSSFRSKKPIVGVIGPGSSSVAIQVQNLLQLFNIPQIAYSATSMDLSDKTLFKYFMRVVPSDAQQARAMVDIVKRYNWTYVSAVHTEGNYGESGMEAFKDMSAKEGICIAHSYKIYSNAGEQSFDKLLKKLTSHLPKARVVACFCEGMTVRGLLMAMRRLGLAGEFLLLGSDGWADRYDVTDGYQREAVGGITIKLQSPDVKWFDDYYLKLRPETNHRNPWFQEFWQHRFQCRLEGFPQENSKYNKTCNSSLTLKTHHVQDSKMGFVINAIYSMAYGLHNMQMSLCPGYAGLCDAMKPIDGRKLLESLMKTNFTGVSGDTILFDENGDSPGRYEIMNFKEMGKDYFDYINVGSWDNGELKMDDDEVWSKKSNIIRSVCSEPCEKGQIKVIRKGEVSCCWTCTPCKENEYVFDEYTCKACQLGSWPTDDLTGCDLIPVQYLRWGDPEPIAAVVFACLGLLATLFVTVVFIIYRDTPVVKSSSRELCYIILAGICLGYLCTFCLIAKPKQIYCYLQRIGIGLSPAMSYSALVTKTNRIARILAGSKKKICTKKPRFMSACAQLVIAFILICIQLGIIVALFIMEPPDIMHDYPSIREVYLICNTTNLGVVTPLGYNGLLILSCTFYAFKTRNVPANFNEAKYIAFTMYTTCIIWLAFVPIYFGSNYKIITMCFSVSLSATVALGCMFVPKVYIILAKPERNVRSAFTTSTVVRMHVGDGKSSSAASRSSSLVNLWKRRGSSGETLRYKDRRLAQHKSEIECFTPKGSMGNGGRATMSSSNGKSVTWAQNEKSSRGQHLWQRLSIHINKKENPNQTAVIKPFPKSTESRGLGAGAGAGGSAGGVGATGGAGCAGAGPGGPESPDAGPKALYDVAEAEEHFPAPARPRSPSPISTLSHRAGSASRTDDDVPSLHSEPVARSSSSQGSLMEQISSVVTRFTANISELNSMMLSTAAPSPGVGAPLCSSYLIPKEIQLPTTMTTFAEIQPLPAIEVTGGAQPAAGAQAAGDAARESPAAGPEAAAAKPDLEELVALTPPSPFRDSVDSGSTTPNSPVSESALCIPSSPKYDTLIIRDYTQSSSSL

[7] = target: T5, Metabotropic glutamate receptor 5; assay: Positive allosteric modulation activity at mGlu5 receptor relative to glutamate
Target sequence in this assay (P41594 21-1212 limits assumed): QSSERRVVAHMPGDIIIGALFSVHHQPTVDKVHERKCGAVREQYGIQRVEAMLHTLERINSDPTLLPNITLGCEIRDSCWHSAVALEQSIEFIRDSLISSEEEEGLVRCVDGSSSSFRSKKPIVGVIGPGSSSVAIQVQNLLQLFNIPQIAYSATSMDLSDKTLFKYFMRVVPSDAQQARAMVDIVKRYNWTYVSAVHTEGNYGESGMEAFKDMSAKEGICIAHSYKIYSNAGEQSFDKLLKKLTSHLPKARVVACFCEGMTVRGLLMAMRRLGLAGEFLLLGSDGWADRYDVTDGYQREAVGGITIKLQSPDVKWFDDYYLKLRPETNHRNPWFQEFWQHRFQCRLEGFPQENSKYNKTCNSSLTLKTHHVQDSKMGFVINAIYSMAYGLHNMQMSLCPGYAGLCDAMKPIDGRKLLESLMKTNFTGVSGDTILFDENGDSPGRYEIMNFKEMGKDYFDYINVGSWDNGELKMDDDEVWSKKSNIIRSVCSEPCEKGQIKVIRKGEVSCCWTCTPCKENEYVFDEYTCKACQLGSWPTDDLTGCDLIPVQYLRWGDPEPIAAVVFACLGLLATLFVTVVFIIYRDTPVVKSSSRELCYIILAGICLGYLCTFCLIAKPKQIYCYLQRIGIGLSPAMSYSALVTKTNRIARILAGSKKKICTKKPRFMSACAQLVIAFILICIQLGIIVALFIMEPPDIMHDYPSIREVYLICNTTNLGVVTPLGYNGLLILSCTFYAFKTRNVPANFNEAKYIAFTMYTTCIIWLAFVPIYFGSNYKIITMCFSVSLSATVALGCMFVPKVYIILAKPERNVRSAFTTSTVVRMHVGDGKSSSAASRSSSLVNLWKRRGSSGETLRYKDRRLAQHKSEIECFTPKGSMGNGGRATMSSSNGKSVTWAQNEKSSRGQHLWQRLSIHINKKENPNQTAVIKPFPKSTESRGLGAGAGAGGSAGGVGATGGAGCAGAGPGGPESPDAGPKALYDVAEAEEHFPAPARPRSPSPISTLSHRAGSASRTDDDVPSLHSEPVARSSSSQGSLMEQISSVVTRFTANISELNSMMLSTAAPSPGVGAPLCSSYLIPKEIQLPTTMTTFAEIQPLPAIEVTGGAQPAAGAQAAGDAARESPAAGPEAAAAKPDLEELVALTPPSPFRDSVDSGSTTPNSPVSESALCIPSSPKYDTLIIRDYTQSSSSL

[8] = target: T5, Metabotropic glutamate receptor 5; assay: Positive allosteric modulation activity at mGlu5 receptor
Target sequence in this assay (P41594 whole entry): as the sequence (P41594 whole entry) above

[9] = target: Metabotropic glutamate receptor 6 (Homo sapiens, UniProt O15303); assay: Positive allosteric modulation activity at mGlu6 receptor
[10] = target: Metabotropic glutamate receptor 7 (Homo sapiens, UniProt Q14831); assay: Positive allosteric modulation activity at mGlu7 receptor
Chain of Metabotropic glutamate receptor 7 (Q14831 whole entry): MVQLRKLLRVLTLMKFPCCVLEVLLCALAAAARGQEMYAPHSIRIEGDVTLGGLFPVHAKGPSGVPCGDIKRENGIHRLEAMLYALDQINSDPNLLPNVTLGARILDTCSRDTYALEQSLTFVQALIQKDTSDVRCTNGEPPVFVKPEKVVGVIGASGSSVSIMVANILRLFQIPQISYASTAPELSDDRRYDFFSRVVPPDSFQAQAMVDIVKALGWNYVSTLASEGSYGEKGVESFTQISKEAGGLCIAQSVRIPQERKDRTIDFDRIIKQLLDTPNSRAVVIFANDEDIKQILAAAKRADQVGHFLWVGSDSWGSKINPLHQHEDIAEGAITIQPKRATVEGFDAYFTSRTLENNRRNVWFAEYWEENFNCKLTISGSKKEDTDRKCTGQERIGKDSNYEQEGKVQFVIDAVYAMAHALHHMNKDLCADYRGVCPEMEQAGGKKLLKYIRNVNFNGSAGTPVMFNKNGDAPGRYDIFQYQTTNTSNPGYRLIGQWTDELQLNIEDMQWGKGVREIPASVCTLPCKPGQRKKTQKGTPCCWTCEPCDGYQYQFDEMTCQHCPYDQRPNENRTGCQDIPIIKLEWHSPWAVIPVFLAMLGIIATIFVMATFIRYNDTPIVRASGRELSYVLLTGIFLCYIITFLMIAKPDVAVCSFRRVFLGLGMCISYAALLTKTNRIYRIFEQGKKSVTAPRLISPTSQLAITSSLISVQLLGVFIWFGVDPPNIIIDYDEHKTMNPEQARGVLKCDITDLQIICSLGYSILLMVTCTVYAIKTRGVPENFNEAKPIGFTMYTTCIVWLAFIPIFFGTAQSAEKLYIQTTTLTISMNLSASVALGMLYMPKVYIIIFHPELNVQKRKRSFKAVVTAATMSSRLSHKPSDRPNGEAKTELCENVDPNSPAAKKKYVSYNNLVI

[11] = target: Metabotropic glutamate receptor 8 (Homo sapiens, UniProt O00222); assay: Positive allosteric modulation activity at mGlu8 receptor
[12] = target: Metabotropic glutamate receptor 4 (Homo sapiens) (UniProt Q14833); assay: Positive allosteric modulation activity at mGlu4 receptor relative to glutamate
Chain of Metabotropic glutamate receptor 4 (Homo sapiens) (Q14833 whole entry): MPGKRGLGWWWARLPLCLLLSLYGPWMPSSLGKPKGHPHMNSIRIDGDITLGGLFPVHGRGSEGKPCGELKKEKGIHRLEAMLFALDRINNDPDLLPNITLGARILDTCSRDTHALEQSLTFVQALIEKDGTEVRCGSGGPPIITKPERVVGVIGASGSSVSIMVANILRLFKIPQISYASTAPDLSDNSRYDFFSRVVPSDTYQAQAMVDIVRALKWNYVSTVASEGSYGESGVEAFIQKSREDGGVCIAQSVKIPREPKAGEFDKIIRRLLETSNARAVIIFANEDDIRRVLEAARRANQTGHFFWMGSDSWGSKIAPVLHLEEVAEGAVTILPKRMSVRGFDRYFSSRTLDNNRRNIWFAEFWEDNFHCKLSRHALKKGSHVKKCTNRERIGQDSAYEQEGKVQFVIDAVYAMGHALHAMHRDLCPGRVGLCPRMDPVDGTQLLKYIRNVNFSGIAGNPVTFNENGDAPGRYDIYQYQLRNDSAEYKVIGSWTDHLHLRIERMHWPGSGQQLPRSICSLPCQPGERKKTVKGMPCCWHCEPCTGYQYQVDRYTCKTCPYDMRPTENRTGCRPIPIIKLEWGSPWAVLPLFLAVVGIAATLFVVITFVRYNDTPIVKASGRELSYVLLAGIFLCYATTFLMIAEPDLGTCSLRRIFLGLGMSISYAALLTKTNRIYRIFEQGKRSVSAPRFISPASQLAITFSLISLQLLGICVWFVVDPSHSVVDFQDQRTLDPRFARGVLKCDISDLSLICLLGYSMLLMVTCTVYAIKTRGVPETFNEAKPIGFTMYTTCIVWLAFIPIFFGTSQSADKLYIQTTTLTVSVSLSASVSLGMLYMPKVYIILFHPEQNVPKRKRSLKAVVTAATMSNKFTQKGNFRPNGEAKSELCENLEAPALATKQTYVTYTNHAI

[13] = target: Metabotropic glutamate receptor 1 (Homo sapiens, UniProt Q13255); assay: Positive allosteric modulation activity at mGlu1 receptor
[14] = target: Metabotropic glutamate receptor 2 (Homo sapiens, UniProt Q14416); assay: Positive allosteric modulation activity at mGlu2 receptor
[15] = target: Metabotropic glutamate receptor 3 (Homo sapiens, UniProt Q14832); assay: Positive allosteric modulation activity at mGlu3 receptor

Work on O=C1C(=O)N(Cc2ccc(Br)cc2)c2ccccc21 yielded an Emax [1] of 82%, an Emax [2] of 66% and an Emax [3] of 74%.

With Nc1sc(-c2cncnc2)c2c1C(=O)c1ccccc1-2 the pKb [4] was 6.67.

Nc1sc2c(c1C(=O)c1ccc(Cl)cc1)CCCC2 gave a pKb [4] of 5.49.

Nc1scc(-c2cc(C(F)(F)F)cc(C(F)(F)F)c2)c1C(=O)c1ccccc1 showed a pKb [4] of 5.22.

In the case of Nc1scc(-c2cccc(C(F)(F)F)c2)c1C(=O)c1ccc(Cl)cc1, the pKb [4] is reported as 5.74.

With Nc1sc2c(c1C(=O)c1ccccc1)CCCCCC2 the pKb [4] was 5.08.

Cn1cc(-c2ccc(Cn3cc(C(=O)O)c(=O)c4c(F)cccc43)c(F)c2)cn1 was tested, and the EC50 [5] was 41 nM.

With CCOC(=O)c1c(N)sc2c1CCN(C(=O)OC(C)(C)C)CC2 the pKb [4] was 6.07.

Compound Cn1cc(-c2ccc(CN3C(=O)C(=O)c4ccccc43)c(F)c2)cn1 has an Emax [1] of 65%.

CCOC(=O)c1nn(-c2cccc(Cl)c2)c(=O)c2c(N)scc12 showed a pKb [4] of 8.3.

In the case of CC(C)(C)OC(=O)N1CCc2sc(N)c(C(=O)c3ccc(Cl)cc3)c2CC1, the pKb [4] is reported as 5.23.

Nc1sc2c(c1C(=O)c1ccc(Cl)cc1)CC1C=CC(C(F)(F)F)=CC1C2 (stereo unspecified) gave a pKb [4] of 5.11.

Compound O=C(O)c1cn(Cc2ccc(-c3ccccc3)cc2)c2cccc(F)c2c1=O has an EC50 [5] of 84 nM.

With C(#Cc1cncnc1)c1ccccc1 the IC50 [6] was 486 nM.

In the case of COc1ccc(CN2C(=O)C(=O)c3cc(OC(F)(F)F)ccc32)cc1, the Emax [3] is reported as 91%.

Compound Cc1cccc(C#Cc2cncnc2)c1 has an IC50 [6] of 7.5 nM.

Work on O=C(O)c1cn(Cc2ccc(-c3ccccc3)cc2)c2c(F)cccc2c1=O yielded an EC50 [5] of 380 nM.

With Nc1sc(-c2cncnc2)cc1C(=O)c1ccccc1 the pKb [4] was 5.82.

Nc1scc(-c2cccc(F)c2)c1C(=O)c1ccc(Cl)cc1 showed a pKb [4] of 5.88.

Work on CNc1ncc(C#Cc2ccccc2)cn1 yielded an Emax [7] of 128%.

For Nc1scc(-c2ccccc2F)c1C(=O)c1ccc(Cl)cc1, the pKb [4] was 5.1.

For O=C(Nc1ccccn1)[C@]12C[C@H]1/C(=N\O)c1ccccc1O2, the EC50 [8] was > 30000 nM, the EC50 [9] was > 30000 nM and the EC50 [10] was > 30000 nM. The EC50 [11] was > 30000 nM, the Emax [12] was 121% and the EC50 [13] was > 30000 nM. For the same compound, the EC50 [14] was > 30000 nM and the EC50 [15] was > 30000 nM.

Nc1sc2c(c1C(=O)c1ccc(Cl)cc1)CC1C=CC=CC1C2 (stereo unspecified) was tested, and the pKb [4] was 6.01.

With Cc1ccc(C(=O)c2c(N)sc3c2CCCC3)cc1 the pKb [4] was 5.1.

In the case of Nc1scc(-c2cc(C(F)(F)F)cc(C(F)(F)F)c2)c1C(=O)c1ccc(Cl)cc1, the pKb [4] is reported as 5.46.

In the case of O=C1C(=O)N(Cc2ccc(Oc3ccccc3)cc2)c2ccc(OC(F)(F)F)cc21, the Emax [3] is reported as 75%.

For Cc1ccc(C#Cc2cncnc2)cc1, the EC50 [8] was 3300 nM and the Emax [7] was 99%.

Nc1sc2c(c1C(=O)c1ccc(Cl)cc1)CC1C=C(C(F)(F)F)C=CC1C2 (stereo unspecified) was tested, and the pKb [4] was 5.12.

Nc1scc(-c2cccc(C(F)(F)F)c2)c1C(=O)c1ccccc1 was tested, and the pKb [4] was 6.37.

In the case of O=C(O)c1cn(Cc2ccc(-c3ccccc3)cc2)c2c(F)ccc(F)c2c1=O, the EC50 [5] is reported as 270 nM.

Nc1sc(-c2ccccc2)cc1C(=O)c1ccccc1 gave a pKb [4] of 6.36.
